How the values were obtained:
Assay in all cases: KINOMEscan
Type in all cases: binding
Conditions in all cases: 1 μM
ERK2 = ERK2 (Homo sapiens, UniProt P28482)
TBK1 = biological target: T1, TBK1 (Homo sapiens, UniProt Q9UHD2)
T1 construct: purchased Eurofins DiscoverX Corporation

p38-gamma = p38-gamma (Homo sapiens, UniProt P53778)
KIT-autoinhibited = biological target: T2, KIT-autoinhibited (Homo sapiens, UniProt P10721)
T2 construct: purchased Eurofins DiscoverX Corporation

PRKX = PRKX (Homo sapiens, UniProt P51817)
AKT1 = AKT1 (Homo sapiens, UniProt P31749)
SYK = biological target: T3, SYK (Homo sapiens, UniProt P43405)
T3 construct: purchased Eurofins DiscoverX Corporation

TAOK2 = biological target: T4, TAOK2 (Homo sapiens, UniProt Q9UL54)
T4 construct: purchased Eurofins DiscoverX Corporation

MEK6 = biological target: T5, MEK6 (Homo sapiens, UniProt P52564)
T5 construct: purchased Eurofins DiscoverX Corporation

p38-alpha = p38-alpha (Homo sapiens, UniProt Q16539)
SIK = SIK (Homo sapiens, UniProt P57059)
GRK2 = biological target: T6, GRK2 (Homo sapiens, UniProt P25098)
T6 construct: purchased Eurofins DiscoverX Corporation

CLK3 = CLK3 (Homo sapiens, UniProt P49761)
[1] = biological target: T7, ABL1(H396P)-phosphorylated (Homo sapiens, UniProt P00519, H396P)
T7 construct: purchased Eurofins DiscoverX Corporation

MAK = biological target: T8, MAK (Homo sapiens, UniProt P20794)
T8 construct: purchased Eurofins DiscoverX Corporation

LZK = biological target: T9, LZK (Homo sapiens, UniProt O43283)
T9 construct: purchased Eurofins DiscoverX Corporation

[2] = biological target: T10, ABL1(M351T)-phosphorylated (Homo sapiens, UniProt P00519, M351T)
T10 construct: purchased Eurofins DiscoverX Corporation

[3] = biological target: RPS6KA4(Kin.Dom.1-N-terminal) (Homo sapiens, UniProt O75676)
CHEK1 = CHEK1 (Homo sapiens, UniProt O14757)
FLT3-autoinhibited = biological target: T11, FLT3-autoinhibited (Homo sapiens, UniProt P36888)
T11 construct: purchased Eurofins DiscoverX Corporation

TIE1 = biological target: T12, TIE1 (Homo sapiens, UniProt P35590)
T12 construct: purchased Eurofins DiscoverX Corporation

HUNK = biological target: T13, HUNK (Homo sapiens, UniProt P57058)
T13 construct: purchased Eurofins DiscoverX (KINOMEscan)

CDK4-cyclinD1 = CDK4-cyclinD1 (Homo sapiens, UniProt P11802)
MLCK = biological target: T14, MLCK (Homo sapiens, UniProt Q32MK0)
T14 construct: purchased Eurofins DiscoverX Corporation

PRKCI = PRKCI (Homo sapiens, UniProt P41743)
AURKA = AURKA (Homo sapiens, UniProt O14965)
PKAC-beta = PKAC-beta (Homo sapiens, UniProt P22694)
CDK4 = CDK4 (Homo sapiens, UniProt P11802)
FGFR4 = FGFR4 (Homo sapiens, UniProt P22455)
EPHA3 = EPHA3 (Homo sapiens, UniProt P29320)
MAPKAPK5 = biological target: T15, MAPKAPK5 (Homo sapiens, UniProt Q8IW41)
T15 construct: purchased Eurofins DiscoverX Corporation

MEK4 = biological target: T16, MEK4 (Homo sapiens, UniProt P45985)
T16 construct: purchased Eurofins DiscoverX Corporation

PIM2 = PIM2 (Homo sapiens, UniProt Q9P1W9)
[4] = biological target: RSK4(Kin.Dom.1-N-terminal) (Homo sapiens, UniProt Q9UK32)
MKNK2 = biological target: T17, MKNK2 (Homo sapiens, UniProt Q9HBH9)
T17 construct: purchased Eurofins DiscoverX Corporation

CDK3 = CDK3 (Homo sapiens, UniProt Q00526)
ADCK3 = ADCK3 (Homo sapiens, UniProt Q8NI60)
SGK2 = SGK2 (Homo sapiens, UniProt Q9HBY8)
CIT = CIT (Homo sapiens, UniProt O14578)
NDR2 = biological target: T18, NDR2 (Homo sapiens, UniProt Q9Y2H1)
T18 construct: purchased Eurofins DiscoverX Corporation

PFPK5(P.falciparum) = PFPK5(P.falciparum) (Plasmodium falciparum, UniProt P61075)
TAOK1 = biological target: T19, TAOK1 (Homo sapiens, UniProt Q7L7X3)
T19 construct: purchased Eurofins DiscoverX Corporation

MARK4 = biological target: T20, MARK4 (Homo sapiens, UniProt Q96L34)
T20 construct: purchased Eurofins DiscoverX Corporation

Chain of CHEK1 (O14757 whole entry): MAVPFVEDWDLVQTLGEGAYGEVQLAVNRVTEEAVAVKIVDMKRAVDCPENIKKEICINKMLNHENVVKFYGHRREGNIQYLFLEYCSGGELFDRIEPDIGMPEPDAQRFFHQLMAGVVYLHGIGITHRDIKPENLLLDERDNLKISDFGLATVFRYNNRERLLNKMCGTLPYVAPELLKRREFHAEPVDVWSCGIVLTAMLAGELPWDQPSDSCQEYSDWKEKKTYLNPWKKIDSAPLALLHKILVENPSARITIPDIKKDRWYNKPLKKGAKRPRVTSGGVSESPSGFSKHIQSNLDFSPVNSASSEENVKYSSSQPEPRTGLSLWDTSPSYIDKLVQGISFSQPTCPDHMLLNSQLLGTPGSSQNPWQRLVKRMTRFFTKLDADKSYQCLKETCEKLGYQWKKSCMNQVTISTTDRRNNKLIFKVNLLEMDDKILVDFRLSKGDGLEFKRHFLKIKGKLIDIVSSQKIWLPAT
Chain of p38-alpha (Q16539 whole entry): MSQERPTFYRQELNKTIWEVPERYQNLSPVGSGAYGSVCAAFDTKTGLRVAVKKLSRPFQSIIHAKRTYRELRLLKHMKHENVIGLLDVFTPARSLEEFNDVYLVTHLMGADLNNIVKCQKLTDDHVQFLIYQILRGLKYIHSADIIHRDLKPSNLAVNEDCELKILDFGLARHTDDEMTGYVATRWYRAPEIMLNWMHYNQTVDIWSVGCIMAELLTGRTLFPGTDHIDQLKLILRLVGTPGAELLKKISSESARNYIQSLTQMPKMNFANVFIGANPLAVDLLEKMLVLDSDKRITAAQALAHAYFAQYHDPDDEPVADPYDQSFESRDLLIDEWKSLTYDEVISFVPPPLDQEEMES
T14 sequence (Q32MK0 whole entry): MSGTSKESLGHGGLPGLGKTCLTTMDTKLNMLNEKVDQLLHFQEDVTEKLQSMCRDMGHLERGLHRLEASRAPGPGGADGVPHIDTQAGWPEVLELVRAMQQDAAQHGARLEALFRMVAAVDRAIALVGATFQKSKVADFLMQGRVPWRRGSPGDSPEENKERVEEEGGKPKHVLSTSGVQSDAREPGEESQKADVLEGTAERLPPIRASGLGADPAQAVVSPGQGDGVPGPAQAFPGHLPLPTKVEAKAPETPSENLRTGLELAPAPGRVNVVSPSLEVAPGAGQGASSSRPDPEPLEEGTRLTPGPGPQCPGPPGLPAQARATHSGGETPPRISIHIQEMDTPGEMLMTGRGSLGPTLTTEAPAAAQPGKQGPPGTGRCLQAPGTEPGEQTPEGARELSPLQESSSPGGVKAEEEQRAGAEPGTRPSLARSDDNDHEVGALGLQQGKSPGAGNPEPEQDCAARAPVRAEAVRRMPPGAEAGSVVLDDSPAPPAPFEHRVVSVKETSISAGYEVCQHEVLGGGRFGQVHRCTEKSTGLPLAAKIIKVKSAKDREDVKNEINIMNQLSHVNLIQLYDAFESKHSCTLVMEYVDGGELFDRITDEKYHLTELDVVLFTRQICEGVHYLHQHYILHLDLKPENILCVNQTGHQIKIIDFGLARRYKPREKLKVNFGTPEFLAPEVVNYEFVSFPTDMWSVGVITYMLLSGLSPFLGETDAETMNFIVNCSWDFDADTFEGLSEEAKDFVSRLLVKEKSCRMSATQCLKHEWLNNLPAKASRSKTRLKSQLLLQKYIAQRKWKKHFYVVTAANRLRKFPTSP
Chain of EPHA3 (P29320 21-983): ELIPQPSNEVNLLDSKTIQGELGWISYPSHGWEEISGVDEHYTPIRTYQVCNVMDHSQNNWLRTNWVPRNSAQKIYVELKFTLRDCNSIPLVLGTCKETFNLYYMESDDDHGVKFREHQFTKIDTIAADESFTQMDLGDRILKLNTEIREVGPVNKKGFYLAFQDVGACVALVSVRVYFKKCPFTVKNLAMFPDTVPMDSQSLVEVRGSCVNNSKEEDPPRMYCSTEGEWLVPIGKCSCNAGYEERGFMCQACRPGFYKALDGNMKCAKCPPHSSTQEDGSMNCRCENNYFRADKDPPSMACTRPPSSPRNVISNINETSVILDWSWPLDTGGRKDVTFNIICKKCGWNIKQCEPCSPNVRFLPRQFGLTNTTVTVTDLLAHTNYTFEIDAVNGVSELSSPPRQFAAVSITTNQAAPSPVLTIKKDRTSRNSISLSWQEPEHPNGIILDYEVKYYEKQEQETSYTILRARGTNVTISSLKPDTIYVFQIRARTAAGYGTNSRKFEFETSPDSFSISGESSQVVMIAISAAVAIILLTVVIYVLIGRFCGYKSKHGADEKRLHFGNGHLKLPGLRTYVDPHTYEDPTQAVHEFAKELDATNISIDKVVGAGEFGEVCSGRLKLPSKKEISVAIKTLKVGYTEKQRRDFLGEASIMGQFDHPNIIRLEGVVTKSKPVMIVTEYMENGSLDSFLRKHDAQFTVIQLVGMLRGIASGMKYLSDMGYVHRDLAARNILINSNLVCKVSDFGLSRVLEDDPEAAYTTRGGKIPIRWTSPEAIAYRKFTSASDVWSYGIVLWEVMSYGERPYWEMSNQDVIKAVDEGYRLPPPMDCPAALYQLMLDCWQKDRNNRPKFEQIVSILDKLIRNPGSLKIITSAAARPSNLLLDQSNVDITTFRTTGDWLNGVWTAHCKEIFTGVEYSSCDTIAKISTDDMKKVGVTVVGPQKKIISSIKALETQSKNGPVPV
T15 sequence (Q8IW41 whole entry): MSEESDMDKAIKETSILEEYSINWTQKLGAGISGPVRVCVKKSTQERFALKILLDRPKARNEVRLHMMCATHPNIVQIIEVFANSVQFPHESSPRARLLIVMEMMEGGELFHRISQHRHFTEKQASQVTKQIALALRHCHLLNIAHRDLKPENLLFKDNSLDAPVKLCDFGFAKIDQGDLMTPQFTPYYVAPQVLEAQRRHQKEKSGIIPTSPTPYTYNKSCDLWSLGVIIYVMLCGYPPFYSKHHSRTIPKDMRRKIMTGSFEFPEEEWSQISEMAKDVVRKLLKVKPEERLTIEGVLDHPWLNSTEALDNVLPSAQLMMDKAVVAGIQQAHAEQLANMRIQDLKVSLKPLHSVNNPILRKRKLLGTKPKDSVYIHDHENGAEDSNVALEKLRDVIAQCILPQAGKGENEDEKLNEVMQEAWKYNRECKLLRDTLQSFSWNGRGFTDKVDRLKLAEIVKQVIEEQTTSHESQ
T18 sequence (Q9Y2H1 whole entry): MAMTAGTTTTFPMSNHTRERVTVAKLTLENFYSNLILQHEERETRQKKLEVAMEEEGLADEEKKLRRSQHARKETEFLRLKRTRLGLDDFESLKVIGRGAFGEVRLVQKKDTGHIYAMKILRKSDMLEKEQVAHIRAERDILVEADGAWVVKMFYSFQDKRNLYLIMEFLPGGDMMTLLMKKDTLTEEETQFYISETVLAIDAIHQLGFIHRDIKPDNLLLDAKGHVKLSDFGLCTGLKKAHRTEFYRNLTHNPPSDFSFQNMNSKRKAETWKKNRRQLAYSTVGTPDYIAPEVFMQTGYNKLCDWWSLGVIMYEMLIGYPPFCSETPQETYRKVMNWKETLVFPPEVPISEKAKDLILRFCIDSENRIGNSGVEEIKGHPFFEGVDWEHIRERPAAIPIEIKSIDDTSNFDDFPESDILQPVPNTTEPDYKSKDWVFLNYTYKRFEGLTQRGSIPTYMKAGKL
T9 sequence (O43283 whole entry): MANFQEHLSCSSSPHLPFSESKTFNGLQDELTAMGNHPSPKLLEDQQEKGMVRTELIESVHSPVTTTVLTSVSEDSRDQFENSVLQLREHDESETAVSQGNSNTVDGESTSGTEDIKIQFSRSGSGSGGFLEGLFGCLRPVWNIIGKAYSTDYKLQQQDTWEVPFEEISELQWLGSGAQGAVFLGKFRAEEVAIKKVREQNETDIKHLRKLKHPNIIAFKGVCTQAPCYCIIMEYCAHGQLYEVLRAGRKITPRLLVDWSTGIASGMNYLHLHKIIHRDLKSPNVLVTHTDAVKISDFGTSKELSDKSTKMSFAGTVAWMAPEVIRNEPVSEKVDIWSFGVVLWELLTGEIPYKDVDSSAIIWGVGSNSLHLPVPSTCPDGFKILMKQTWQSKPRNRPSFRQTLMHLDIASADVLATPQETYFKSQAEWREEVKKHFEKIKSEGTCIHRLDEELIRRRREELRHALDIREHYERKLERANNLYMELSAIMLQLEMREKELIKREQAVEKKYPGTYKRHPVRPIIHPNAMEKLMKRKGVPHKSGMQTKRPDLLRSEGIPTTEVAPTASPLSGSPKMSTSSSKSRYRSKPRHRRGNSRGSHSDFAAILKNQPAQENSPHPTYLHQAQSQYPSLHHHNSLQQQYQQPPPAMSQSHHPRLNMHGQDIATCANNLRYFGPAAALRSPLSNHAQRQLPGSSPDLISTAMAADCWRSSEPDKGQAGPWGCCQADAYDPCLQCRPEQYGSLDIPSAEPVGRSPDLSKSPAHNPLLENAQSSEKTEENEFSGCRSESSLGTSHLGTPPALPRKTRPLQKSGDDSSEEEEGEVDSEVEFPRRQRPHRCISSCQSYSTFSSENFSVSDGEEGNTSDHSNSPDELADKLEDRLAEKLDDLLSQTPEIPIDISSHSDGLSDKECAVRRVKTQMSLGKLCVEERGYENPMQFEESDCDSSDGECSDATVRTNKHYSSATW
T5 sequence (P52564 whole entry): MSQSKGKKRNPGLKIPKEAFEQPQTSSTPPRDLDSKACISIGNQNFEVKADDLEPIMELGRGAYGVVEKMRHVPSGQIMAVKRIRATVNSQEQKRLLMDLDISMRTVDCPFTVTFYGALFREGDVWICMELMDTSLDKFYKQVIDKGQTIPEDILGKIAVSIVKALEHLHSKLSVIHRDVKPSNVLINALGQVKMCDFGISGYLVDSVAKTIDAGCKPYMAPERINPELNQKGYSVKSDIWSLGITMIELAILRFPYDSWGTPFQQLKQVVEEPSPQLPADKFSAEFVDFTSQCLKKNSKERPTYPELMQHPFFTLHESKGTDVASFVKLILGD

How did the POC (ERK2) turn out when `C=CC(=O)Nc1ccc(OC)c(Nc2cc(-c3[nH]c(CC)nc3-c3cccc(NC(=O)c4cccc5c4NC(=O)c4ccccc4N5)c3)ccn2)c1` [Compound 4] was run?
Its POC is 100% of control.

What about the POC (TBK1) of the same molecule?
The POC was 95% of control.

What about the POC (p38-gamma) of the same molecule?
The POC was 100% of control.

And the POC (KIT-autoinhibited)?
Its POC is 100% of control.

And the POC (PRKX)?
Its POC is 100% of control.

And the POC (AKT1)?
Its POC is 89% of control.

And the POC (SYK)?
The POC was 63% of control.

What about the POC (TAOK2) of the same molecule?
The POC was 100% of control.

And the POC (MEK6)?
Its POC is 73% of control.

What about the POC (p38-alpha) of the same molecule?
The POC was 46% of control.

And the POC (SIK)?
Its POC is 100% of control.

What about the POC (GRK2) of the same molecule?
The POC was 100% of control.

What about the POC (CLK3) of the same molecule?
The POC was 74% of control.

What about the POC [1] of the same molecule?
Its POC is 74% of control.

And the POC (MAK)?
The POC was 89% of control.

What about the POC (LZK) of the same molecule?
Its POC is 90% of control.

What about the POC [2] of the same molecule?
Its POC is 67% of control.

What about the POC [3] of the same molecule?
The POC was 96% of control.

And the POC (CHEK1)?
Its POC is 100% of control.

What about the POC (FLT3-autoinhibited) of the same molecule?
The POC was 100% of control.

What about the POC (TIE1) of the same molecule?
The POC was 100% of control.

And the POC (HUNK)?
The POC was 32% of control.

What about the POC (CDK4-cyclinD1) of the same molecule?
The POC was 94% of control.

What about the POC (MLCK) of the same molecule?
The POC was 86% of control.

What about the POC (PRKCI) of the same molecule?
Its POC is 100% of control.

What about the POC (AURKA) of the same molecule?
The POC was 90% of control.

And the POC (PKAC-beta)?
The POC was 98% of control.

And the POC (CDK4)?
Its POC is 100% of control.

And the POC (FGFR4)?
The POC was 100% of control.

And the POC (EPHA3)?
The POC was 81% of control.

And the POC (MAPKAPK5)?
The POC was 100% of control.

What about the POC (MEK4) of the same molecule?
Its POC is 100% of control.

And the POC (PIM2)?
The POC was 88% of control.

And the POC [4]?
The POC was 100% of control.

And the POC (MKNK2)?
Its POC is 100% of control.

And the POC (CDK3)?
The POC was 100% of control.

What about the POC (ADCK3) of the same molecule?
Its POC is 100% of control.

And the POC (SGK2)?
Its POC is 83% of control.

And the POC (CIT)?
Its POC is 6.3% of control.

What about the POC (NDR2) of the same molecule?
Its POC is 77% of control.

And the POC (PFPK5(P.falciparum))?
Its POC is 100% of control.

And the POC (TAOK1)?
The POC was 100% of control.

What about the POC (MARK4) of the same molecule?
The POC was 92% of control.

— article PMC10879502, “Linking ATP and allosteric sites to achieve superadditive binding with bivalent EGFR kinase inhibitors” (Communications Chemistry, 2024)
